The subject of this assay is GRα mRNA levels in PBMC. In words: Fold change ratio of GRα mRNA levels in PBMC of VKH patients after two weeks of prednisone (GC) treatment, RT-qPCR. The following applies: for Fold change ratio of GR levels in PBMC: after two weeks of Prednisone treatment vs baseline, oral 1 mg/Kg/day, 1 mg/kg/day; for GRα mRNA fold change median / GRα mRNA fold change range: two weeks of systemic GC therapy vs baseline. The class given is in vivo, human. The procedure: 1) Obtainment of a 10-100 ml blood sample—preferably collected in the morning by automatic aspiration (vacutainer®) or manual (disposable syringe) methods. As an alternative or complementarily, the affected tissue or cell type may be completely or partially removed in order to carry out measurements.
2) After obtaining the sample, peripheral mononuclear cells (PBMC) are procured by the Ficoll gradient method, where a hydrophilic polysaccharide allows separating blood components into plasma, PBMC and erythrocytes. Alternatively or complementarily, the isolation of specific cell sub-types, such as CD4+, CD14+, CD8+cells, among others, may be conducted using a strategy based on magnetic microbeads or cell sorting by flow cytometry.
3) Subsequently, total RNA is extracted (Life Technologies, Inc.) by the TRIZOL method. For the obtainment of cDNA, 0.5 to 2 μg RNA is used as a template. Reverse transcription is performed preferably with kit ImProm-II™ Reverse Transcription System (Promega): a reaction mixture is prepared with 0.5 to 2 μg RNA, 1 μL Random Hexamers, 4 μL 5× ImProm-II™ RT buffer up to a final 20 μL volume, which is then incubated at 70° C. for 5 minutes, 4° C. for 5 minutes, 25° C. for 5 minutes, 42° C. for 60 minutes and 25° C. for 5 minutes.
4) cDNA is amplified using primers specific for GRα isoform: 5′-[…]-3′ (sense, SEQ ID NO: 1) and 5′-[…]-3′ (antisense, SEQ ID NO: 2) that correspond to nucleotides 2158-2178 and 2616-2635 of GRα cDNA.
5) For the amplification, a cDNA polymerase is used, preferably, the enzyme Go Taq® Flexi DNA Polymerase (Promega), starting the reaction with an initial 5 minute incubation at 95° C., followed then by 30 cycles as detailed: 95° C. for 30 seconds, 60° C. for 30 seconds and 72° C. for 30 seconds. For quantification by Real-Time qPCR a fluorophore is used, using preferably SYBR Green as fluorophore. GR measurements are made in duplicate. Finally, the results are standardized according to the expression of 18s rDNA gene that codes for the 18s ribosomal subunit.
6) Repetition of GRα mRNA level assessment according to the described protocol is carried out two weeks after initiating GC treatment. An increase is observed in GRα expression in sensitive patients and a reduction of the same in resistant patients (median of 5.5 versus 0.7, respectively).
7) Calculation of fold change ratio in GRα mRNA levels between the initial assessment and a later assessment after 2 weeks of GC treatment. GR fold change ratio=GR mRNA-2 weeks/GR mRNA at baseline
The method described in the present invention has been assessed in a group of 21 patients with Vogt-Koyanagi-Harada (VKH) disease, a specific uveitis subtype.
Cases: 13 patients affected by VKH with an inadequate response to oral treatment with 1 mg/Kg/day prednisone, in two separate doses, ⅔ of the daily dose in the morning and ⅓ of the dose in the afternoon.
Controls: 8 patients affected by VKH with an adequate response to the oral treatment with 1 mg/Kg/day prednisone, in two separate doses, ⅔ of the daily dose in the morning and ⅓ of the dose in the afternoon.
An analysis was conducted on the fold change ratio of GR transcript expression two weeks after treatment initiation, in comparison with baseline levels (prior to treatment initiation), segregating in accordance with the clinical response during follow-up. To calculate this fold change ratio, an arithmetic operation is conducted, that consists in dividing the GR levels obtained two weeks after the treatment and the baseline or initial GR levels. GR fold change ratio=GR mRNA-2 weeks/GR mRNA at baseline
On the technique in general: Real-time PCR tracks product formation cycle by cycle.

The mark [1] stands for this setting: patients clinically sensitive to GC.

The source of these data is patent US10683546B2, “Kit for predicting treatment with glucocorticoids and method comprising the same” (UNIVERSIDAD DE CHILE, priority 2015, dated 2020).

Where “and” joins values, the source holds several entries; their conditions need not be identical. Equal entries are not always repeated.

For the molecule `C[C@]12C=CC(=O)C=C1CC[C@@H]1[C@@H]2C(=O)C[C@@]2(C)[C@H]1CC[C@]2(O)C(=O)CO` [Prednisone, prednisone], the “Fold change ratio of GR levels in PBMC” value is 0.667 and 0.225 and 0.243 and 0.841 and 0.759 (individual patients with Vogt-Koyanagi-Harada disease clinically Resistant to GC); 5.21 and 8.49 and 2.53 and 0.237 and 17.8 and 15 and 5.52 (individual patients with Vogt-Koyanagi-Harada disease clinically Sensitive to GC). The “GRα mRNA fold change median” value under setting [1] is given as 5.5 and the “GRα mRNA fold change median” value (patients resistant to GC) was determined as 0.7. Besides, the “GRα mRNA fold change range” value reads like this: under setting [1], 0.23-17.8; (patients resistant to GC) 0.22-0.84.
